Numbered stars: 1 amine (or outer) side, 2 acyl side, 3 side chain; on linkers, the order of the positions; unused ones are H or OH. Bridge positions count the residues as written; N and C are the ends. Peptide text beside a SMILES is read from it. CH2 = C([*:1])[*:2]
Molecular target: Type-2 angiotensin II receptor (Sus scrofa)
Assay: Binding affinity for Angiotensin II receptor type 2 using [125I]- Ang II in pig uterus myometrium

Ki [µM]	SMILES
> 10	CC(C)[C@H](NC(=O)[C@H](C)NC(=O)[C@@H](N)CC(=O)O)C(=O)Nc1ccc2c(c1)CN(CC(=O)N[C@@H](Cc1cnc[nH]1)C(=O)N1CCC[C@H]1C(=O)N[C@@H](Cc1ccccc1)C(=O)O)C(=O)[C@H](Cc1ccc(O)cc1)N2 [Angiotensin II analogue]
> 10	CC(C)[C@H](NC(=O)[C@H](CCCNC(=N)N)NC(=O)[C@@H](N)CC(=O)O)C(=O)N[C@@H](Cc1ccc(O)cc1)C(=O)Nc1ccc2c(c1)CN(CC(=O)N[C@@H](Cc1ccccc1)C(=O)O)C(=O)[C@H](Cc1cnc[nH]1)N2 [Angiotensin II analogue]
> 10	N=C(N)NCCC[C@H](NC(=O)[C@@H](N)CC(=O)O)C(=O)Nc1ccc2c(c1)CN(CC(=O)N[C@@H](Cc1cnc[nH]1)C(=O)N1CCC[C@H]1C(=O)N[C@@H](Cc1ccccc1)C(=O)O)C(=O)[C@H](Cc1ccc(O)cc1)N2 [Angiotensin II analogue]
0.00062	N=C(N)NCCC[C@H](NC(=O)[C@@H](N)CC(=O)O)C(=O)N[C@H]1CSCSC[C@@H](C(=O)N[C@@H](Cc2cnc[nH]2)C(=O)N2CCC[C@H]2C(=O)N[C@@H](Cc2ccccc2)C(=O)O)NC(=O)[C@H](Cc2ccc(O)cc2)NC1=O [Angiotensin II analogue] (H-DRCYCHPF-OH; linker 3-5 via CH2)

— BindingDB's records for doi:10.1021/jm030921v (Uppsala University, 2004)
